We go through ten compounds from ChEMBL document CHEMBL2029278 (Bioorg Med Chem Lett, 2012).

The target of assay [1] is T1, Neuraminidase (Influenza A virus, UniProt B4URF0). The assay can be described thus: Inhibition of Influenza A virus H1N1 neuraminidase using 4-MU-NANA as substrate by fluorescence assay.
For assay [2], the target named is T1, Neuraminidase. Description: Inhibition of Influenza A virus H9N2 neuraminidase using 4-MU-NANA as substrate by fluorescence assay.
Assay [3] concerns the target T1, Neuraminidase. Description: Inhibition of wild type H1N1 swine influenza virus neuraminidase using 4-MU-NANA as substrate by fluorescence assay.
Assay [4] has as its system Influenza A virus. Description: Antiviral activity against Influenza A virus PR/8/34 H1N1 infected in dog MDCK cells assessed as reduction in virus-induced cytopathic effect at 5 ug/mL. Format: functional, organism-based. The conditions noted are these: A/Puerto Rico/8/1934(H1N1). A general note: Cytopathic effects are the visible damage that an infection or toxin causes in cultured cells.

Calls of active or inactive are those of the source. The calls are words filed in the database; no cut-off is given here.

T1 sequence (B4URF0 whole entry): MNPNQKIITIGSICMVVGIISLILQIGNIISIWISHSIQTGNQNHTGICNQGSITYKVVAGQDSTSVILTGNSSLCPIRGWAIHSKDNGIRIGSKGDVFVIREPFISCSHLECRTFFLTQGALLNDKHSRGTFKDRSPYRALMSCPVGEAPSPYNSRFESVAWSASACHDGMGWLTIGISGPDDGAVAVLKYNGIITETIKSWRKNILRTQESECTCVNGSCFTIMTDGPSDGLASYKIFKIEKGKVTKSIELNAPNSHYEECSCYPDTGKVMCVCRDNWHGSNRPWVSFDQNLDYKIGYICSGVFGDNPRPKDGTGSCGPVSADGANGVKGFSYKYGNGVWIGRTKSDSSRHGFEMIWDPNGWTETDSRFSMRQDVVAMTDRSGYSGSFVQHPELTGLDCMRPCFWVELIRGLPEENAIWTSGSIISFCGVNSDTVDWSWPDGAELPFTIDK

As for `COc1c2c(cc3c(=O)c4ccccc4oc13)OCO2`, the IC50 in assay [1] and in assay [2] was above 370 µM each time.

With `COc1cccc2oc3ccc(O)cc3c(=O)c12`, the IC50 in assay [1] and in assay [2] was above 413 µM in each case.

With `O=c1c2ccccc2oc2cc(O)cc(O)c12`, the IC50 (usually the point on the concentration scale where inhibition reaches its midpoint) in assay [1] is 102 µM; in assay [2], 67.7 µM; in assay [3], 48.9 µM. For the same compound, the outcome in assay [4] was Active.

On to `O=c1c2cc(O)ccc2oc2cccc(O)c12`, for which the values for the IC50 in assay [1], in assay [2] and in assay [3] were 103 µM, 98.4 µM and 50.6 µM, respectively. For the same compound, in assay [4], the outcome was Active.

On to `COc1cc(O)c2oc3ccccc3c(=O)c2c1OC`, for which the IC50 in assay [1] and in assay [2] was above 367 µM each time.

Take `O=c1c2cccc(O)c2oc2cc(O)c(O)c(O)c12`: the IC50 was 103 µM in assay [1], 76.1 µM in assay [2] and 52.6 µM in assay [3]. The outcome in assay [4] was Active.

On to `COc1c(O)cc2oc3cc(O)ccc3c(=O)c2c1OC`, for which the IC50 in assay [1] and in assay [2] was above 347 µM throughout.

On to `COc1c(O)cc2c(=O)c3ccccc3oc2c1OC`, for which the IC50 in assay [1] and in assay [2] was above 367 µM each time.

`COc1ccc(O)c2c(=O)c3cc(O)ccc3oc12`: the values for the IC50 in assay [1], in assay [2] and in assay [3] were 110 µM, 99.1 µM and 36.1 µM, respectively. Further, the outcome in assay [4] was Active.

For `O=c1c2cc(O)ccc2oc2cc(O)cc(O)c12`, the IC50 is 110 µM in assay [1], 101 µM in assay [2] and 54.9 µM in assay [3]. The outcome in assay [4] was Active.
